Values belong to the molecule of their own block, whether it stands above or below them.
What was measured:
Experiment in all cases: KINOMEscan competition binding
Settings in all cases: compound 10.0 µM
[1] = molecular target: STK11 (human) (UniProt Q15831)
[2] = molecular target: MAPK15 (human) (UniProt Q8TD08)
[3] = molecular target: MKNK1 (human) (UniProt Q9BUB5)
[4] = test system: FLT3 (human), P36888 [N841I]
[5] = molecular target: TYK2 JH2 pseudokinase (human) (UniProt P29597)
[6] = molecular target: ACVR2B (human) (UniProt Q13705)
[7] = molecular target: MINK1 (human) (UniProt Q8N4C8)
[8] = molecular target: RPS6KA2 KD2 (human) (UniProt Q15349)
[9] = molecular target: PRKD3 (human) (UniProt O94806)
[10] = molecular target: DAPK3 (human) (UniProt O43293)
[11] = molecular target: CDK16 (human) (UniProt Q00536)
[12] = molecular target: GAK (human) (UniProt O14976)
[13] = molecular target: MAPK8 (human) (UniProt P45983)
[14] = molecular target: RIPK2 (human) (UniProt O43353)
[15] = test system: KIT (human), P10721 [V559D]
[16] = test system: FLT3 (human), P36888 [K663Q]
[17] = test system: EGFR (human), P00533 [747-751 del / S ins]
[18] = molecular target: PRKD1 (human) (UniProt Q15139)
[19] = molecular target: PDGFRB (human) (UniProt P09619)
[20] = molecular target: NEK2 (human) (UniProt P51955)
[21] = molecular target: AAK1 (human) (UniProt Q2M2I8)
[22] = molecular target: CSNK2A1 (human) (UniProt P68400)
[23] = molecular target: CSNK1G3 (human) (UniProt Q9Y6M4)
[24] = molecular target: TNIK (human) (UniProt Q9UKE5)
[25] = test system: FLT3 (human), P36888 [D835Y]
[26] = molecular target: PLK4 (human) (UniProt O00444)
[27] = molecular target: ACVR1 (human) (UniProt Q04771)
[28] = molecular target: STK33 (human) (UniProt Q9BYT3)
[29] = molecular target: JAK3 JH1 catalytic (human) (UniProt P52333)
[30] = molecular target: TTK (human) (UniProt P33981)
[31] = molecular target: CSNK1G1 (human) (UniProt Q9HCP0)
[32] = molecular target: MYLK (human) (UniProt Q15746)
[33] = molecular target: CAMKK1 (human) (UniProt Q8N5S9)
[34] = molecular target: TAOK3 (human) (UniProt Q9H2K8)
[35] = molecular target: STK16 (human) (UniProt O75716)
[36] = molecular target: RPS6KA4 KD2 (human) (UniProt O75676)
[37] = molecular target: RPS6KA5 KD2 (human) (UniProt O75582)
[38] = molecular target: MYLK4 (human) (UniProt Q86YV6)
[39] = molecular target: ULK2 (human) (UniProt Q8IYT8)
[40] = molecular target: CLK3 (human) (UniProt P49761)
[41] = molecular target: CHUK (human) (UniProt O15111)
[42] = test system: EGFR (human), P00533 [G719S]

Sequence of PRKD1 (human) (Q15139 whole entry, looked up): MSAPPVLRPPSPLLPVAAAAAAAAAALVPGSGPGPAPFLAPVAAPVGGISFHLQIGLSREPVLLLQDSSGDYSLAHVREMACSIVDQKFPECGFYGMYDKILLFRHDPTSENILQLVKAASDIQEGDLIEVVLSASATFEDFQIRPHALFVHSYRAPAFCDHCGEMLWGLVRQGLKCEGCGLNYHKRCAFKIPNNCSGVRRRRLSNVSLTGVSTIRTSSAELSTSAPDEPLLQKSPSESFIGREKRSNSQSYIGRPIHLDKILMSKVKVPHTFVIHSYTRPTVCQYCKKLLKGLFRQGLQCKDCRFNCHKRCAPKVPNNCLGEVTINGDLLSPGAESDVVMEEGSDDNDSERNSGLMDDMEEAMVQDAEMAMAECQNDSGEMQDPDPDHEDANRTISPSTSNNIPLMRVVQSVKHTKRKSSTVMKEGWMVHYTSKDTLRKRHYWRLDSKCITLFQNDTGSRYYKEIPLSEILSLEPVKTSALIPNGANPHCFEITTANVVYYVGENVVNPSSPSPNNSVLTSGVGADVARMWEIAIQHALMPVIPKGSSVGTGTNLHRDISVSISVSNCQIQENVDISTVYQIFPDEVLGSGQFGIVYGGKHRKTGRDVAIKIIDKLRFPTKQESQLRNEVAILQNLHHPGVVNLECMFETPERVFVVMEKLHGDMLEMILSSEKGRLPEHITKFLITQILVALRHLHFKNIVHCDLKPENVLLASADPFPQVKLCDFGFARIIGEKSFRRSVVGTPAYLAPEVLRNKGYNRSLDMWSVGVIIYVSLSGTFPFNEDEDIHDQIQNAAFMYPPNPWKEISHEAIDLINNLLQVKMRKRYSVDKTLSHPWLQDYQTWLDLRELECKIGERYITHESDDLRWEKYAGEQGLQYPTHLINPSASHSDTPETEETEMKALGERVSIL
Sequence of ACVR2B (human) (Q13705 whole entry, looked up): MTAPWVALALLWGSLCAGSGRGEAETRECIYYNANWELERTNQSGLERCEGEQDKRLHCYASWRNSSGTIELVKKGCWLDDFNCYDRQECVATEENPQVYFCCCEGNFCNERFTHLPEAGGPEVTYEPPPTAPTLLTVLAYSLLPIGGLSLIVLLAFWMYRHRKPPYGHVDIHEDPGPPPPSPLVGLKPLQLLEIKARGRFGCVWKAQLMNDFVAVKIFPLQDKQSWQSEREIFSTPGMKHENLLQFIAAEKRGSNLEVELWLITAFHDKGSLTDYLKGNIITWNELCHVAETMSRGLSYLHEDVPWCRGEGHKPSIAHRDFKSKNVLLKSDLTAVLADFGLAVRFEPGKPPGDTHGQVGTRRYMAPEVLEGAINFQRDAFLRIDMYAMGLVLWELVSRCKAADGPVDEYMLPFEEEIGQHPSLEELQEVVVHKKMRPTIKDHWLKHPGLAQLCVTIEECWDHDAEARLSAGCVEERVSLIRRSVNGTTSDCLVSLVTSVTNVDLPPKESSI
Sequence of PLK4 (human) (O00444 whole entry, looked up): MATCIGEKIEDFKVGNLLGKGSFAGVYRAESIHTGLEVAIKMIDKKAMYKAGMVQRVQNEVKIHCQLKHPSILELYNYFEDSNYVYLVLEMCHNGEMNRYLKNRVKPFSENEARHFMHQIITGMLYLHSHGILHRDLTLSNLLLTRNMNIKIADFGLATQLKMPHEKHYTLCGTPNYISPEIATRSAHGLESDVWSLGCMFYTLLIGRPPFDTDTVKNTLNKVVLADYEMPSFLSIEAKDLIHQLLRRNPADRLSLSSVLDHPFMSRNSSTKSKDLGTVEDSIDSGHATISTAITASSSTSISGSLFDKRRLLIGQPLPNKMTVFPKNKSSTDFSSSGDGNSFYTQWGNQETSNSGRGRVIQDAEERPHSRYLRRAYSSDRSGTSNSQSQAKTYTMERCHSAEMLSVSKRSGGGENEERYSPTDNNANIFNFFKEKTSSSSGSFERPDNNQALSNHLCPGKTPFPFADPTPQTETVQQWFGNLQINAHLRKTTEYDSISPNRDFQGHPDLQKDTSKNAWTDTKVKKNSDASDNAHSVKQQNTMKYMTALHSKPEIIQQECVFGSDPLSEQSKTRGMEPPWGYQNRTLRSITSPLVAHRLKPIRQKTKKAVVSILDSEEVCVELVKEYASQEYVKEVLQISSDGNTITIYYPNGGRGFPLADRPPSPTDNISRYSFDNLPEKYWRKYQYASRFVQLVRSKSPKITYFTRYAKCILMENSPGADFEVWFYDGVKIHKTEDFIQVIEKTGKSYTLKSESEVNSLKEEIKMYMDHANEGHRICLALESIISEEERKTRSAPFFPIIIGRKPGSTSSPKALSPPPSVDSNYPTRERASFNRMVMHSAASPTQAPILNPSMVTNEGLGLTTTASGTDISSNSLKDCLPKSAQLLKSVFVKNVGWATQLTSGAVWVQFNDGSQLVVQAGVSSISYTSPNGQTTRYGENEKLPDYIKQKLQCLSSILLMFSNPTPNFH
Sequence of MAPK8 (human) (P45983 whole entry, looked up): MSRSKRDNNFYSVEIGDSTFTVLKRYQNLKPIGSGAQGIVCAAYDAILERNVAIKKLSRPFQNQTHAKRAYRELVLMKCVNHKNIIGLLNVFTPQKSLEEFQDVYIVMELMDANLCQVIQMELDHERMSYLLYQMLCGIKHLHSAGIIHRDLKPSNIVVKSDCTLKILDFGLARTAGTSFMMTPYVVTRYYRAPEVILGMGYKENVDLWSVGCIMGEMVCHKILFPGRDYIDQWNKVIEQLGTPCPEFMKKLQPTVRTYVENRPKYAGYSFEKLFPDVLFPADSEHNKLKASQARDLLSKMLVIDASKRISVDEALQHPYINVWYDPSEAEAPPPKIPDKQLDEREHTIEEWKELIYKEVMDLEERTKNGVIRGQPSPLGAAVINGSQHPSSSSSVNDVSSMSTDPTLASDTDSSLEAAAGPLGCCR
Sequence of TNIK (human) (Q9UKE5 whole entry, looked up): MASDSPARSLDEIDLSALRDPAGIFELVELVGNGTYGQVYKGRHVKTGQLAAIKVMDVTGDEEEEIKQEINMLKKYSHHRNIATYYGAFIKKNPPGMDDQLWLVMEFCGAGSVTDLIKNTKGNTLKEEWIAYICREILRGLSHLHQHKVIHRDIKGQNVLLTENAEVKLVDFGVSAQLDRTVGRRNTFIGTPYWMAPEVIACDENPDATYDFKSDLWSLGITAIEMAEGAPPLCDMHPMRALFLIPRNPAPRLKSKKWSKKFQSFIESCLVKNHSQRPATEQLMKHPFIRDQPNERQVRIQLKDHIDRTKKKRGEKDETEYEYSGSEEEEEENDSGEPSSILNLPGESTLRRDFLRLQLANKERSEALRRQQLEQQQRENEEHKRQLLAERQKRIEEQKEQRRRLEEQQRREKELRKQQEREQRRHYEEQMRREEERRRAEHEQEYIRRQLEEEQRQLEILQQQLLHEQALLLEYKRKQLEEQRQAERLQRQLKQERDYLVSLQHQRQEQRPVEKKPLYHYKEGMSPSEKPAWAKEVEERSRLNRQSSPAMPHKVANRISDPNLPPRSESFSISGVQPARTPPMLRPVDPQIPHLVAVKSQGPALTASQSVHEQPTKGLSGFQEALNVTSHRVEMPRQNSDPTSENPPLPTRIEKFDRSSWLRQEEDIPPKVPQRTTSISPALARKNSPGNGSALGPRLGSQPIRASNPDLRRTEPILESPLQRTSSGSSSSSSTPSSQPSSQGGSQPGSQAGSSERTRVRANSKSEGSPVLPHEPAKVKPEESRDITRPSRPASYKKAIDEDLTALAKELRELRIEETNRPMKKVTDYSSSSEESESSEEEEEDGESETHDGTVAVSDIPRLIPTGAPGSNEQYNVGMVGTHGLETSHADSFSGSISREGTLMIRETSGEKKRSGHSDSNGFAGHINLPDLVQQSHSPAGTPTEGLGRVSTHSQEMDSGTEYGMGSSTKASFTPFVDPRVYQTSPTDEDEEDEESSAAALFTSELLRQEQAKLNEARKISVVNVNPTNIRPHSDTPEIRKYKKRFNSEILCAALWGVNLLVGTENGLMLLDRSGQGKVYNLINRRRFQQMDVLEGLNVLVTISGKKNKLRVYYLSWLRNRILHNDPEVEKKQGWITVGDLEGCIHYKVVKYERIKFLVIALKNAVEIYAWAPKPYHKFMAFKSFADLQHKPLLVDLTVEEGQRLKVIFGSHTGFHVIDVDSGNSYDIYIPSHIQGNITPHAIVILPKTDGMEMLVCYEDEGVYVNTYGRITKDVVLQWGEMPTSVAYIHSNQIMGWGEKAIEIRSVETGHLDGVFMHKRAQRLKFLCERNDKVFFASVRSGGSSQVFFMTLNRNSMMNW
Sequence of RIPK2 (human) (O43353 whole entry, looked up): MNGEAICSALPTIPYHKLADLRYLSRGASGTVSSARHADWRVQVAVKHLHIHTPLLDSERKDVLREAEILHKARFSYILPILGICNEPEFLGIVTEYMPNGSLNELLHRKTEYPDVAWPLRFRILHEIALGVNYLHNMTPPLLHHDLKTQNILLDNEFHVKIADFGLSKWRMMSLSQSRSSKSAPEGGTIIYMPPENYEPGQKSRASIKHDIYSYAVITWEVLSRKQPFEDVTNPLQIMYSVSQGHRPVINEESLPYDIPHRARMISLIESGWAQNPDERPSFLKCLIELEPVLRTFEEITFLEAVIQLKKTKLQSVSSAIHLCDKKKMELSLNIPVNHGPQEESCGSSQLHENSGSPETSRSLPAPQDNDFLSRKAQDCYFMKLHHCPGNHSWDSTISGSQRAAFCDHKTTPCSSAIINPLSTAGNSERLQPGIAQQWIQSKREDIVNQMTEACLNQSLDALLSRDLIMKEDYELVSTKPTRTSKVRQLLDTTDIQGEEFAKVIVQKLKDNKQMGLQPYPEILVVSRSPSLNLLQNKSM
Sequence of STK16 (human) (O75716 whole entry, looked up): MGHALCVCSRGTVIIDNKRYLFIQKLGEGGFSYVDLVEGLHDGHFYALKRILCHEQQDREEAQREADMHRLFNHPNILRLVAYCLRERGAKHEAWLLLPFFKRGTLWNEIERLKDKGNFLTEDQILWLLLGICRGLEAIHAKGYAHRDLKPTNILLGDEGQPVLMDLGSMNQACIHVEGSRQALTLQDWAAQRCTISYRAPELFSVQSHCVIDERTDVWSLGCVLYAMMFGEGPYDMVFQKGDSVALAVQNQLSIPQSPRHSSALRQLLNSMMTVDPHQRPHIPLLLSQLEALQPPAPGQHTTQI

kinase still bound, per cent of control [1]: 100%
kinase still bound, per cent of control [3]: 100%
kinase still bound, per cent of control [4]: 92%
kinase still bound, per cent of control [5]: 100%
kinase still bound, per cent of control [6]: 92%
kinase still bound, per cent of control [7]: 100%
kinase still bound, per cent of control [8]: 97%
kinase still bound, per cent of control [9]: 85%
kinase still bound, per cent of control [10]: 98%
kinase still bound, per cent of control [11]: 93%
kinase still bound, per cent of control [12]: 45%
kinase still bound, per cent of control [13]: 86%
kinase still bound, per cent of control [14]: 100%
kinase still bound, per cent of control [15]: 95%
kinase still bound, per cent of control [16]: 92%
kinase still bound, per cent of control [17]: 92%
kinase still bound, per cent of control [18]: 87%
kinase still bound, per cent of control [19]: 98%
kinase still bound, per cent of control [20]: 96%
kinase still bound, per cent of control [21]: 88%
kinase still bound, per cent of control [22]: 88%
kinase still bound, per cent of control [23]: 98%
kinase still bound, per cent of control [24]: 90%
kinase still bound, per cent of control [25]: 75%
kinase still bound, per cent of control [26]: 67%
kinase still bound, per cent of control [27]: 100%
kinase still bound, per cent of control [28]: 58%
kinase still bound, per cent of control [29]: 100%
kinase still bound, per cent of control [30]: 95%
kinase still bound, per cent of control [31]: 100%
kinase still bound, per cent of control [32]: 97%
kinase still bound, per cent of control [33]: 73%
kinase still bound, per cent of control [34]: 67%
kinase still bound, per cent of control [35]: 100%
kinase still bound, per cent of control [36]: 88%
kinase still bound, per cent of control [37]: 93%
kinase still bound, per cent of control [38]: 100%
kinase still bound, per cent of control [39]: 100%
kinase still bound, per cent of control [40]: 100%
kinase still bound, per cent of control [41]: 60%
kinase still bound, per cent of control [42]: 90%
Structure (SMILES): COc1cc(N2CCN(C)CC2)ccc1Nc1ncc2c(n1)N(C)c1ccccc1N(C)C2=O
kinase still bound, per cent of control [2]: 100%

kinase still bound, per cent of control [1]: 91%
kinase still bound, per cent of control [3]: 48%
kinase still bound, per cent of control [4]: 93%
kinase still bound, per cent of control [5]: 70%
kinase still bound, per cent of control [6]: 100%
kinase still bound, per cent of control [7]: 60%
kinase still bound, per cent of control [8]: 23%
kinase still bound, per cent of control [9]: 22%
kinase still bound, per cent of control [10]: 37%
kinase still bound, per cent of control [11]: 94%
kinase still bound, per cent of control [12]: 12%
kinase still bound, per cent of control [13]: 68%
kinase still bound, per cent of control [14]: 100%
kinase still bound, per cent of control [15]: 93%
kinase still bound, per cent of control [16]: 96%
kinase still bound, per cent of control [17]: 64%
kinase still bound, per cent of control [18]: 12%
kinase still bound, per cent of control [19]: 87%
kinase still bound, per cent of control [20]: 62%
kinase still bound, per cent of control [21]: 35%
kinase still bound, per cent of control [22]: 100%
kinase still bound, per cent of control [23]: 90%
kinase still bound, per cent of control [24]: 48%
kinase still bound, per cent of control [25]: 68%
kinase still bound, per cent of control [26]: 5.4%
kinase still bound, per cent of control [27]: 95%
kinase still bound, per cent of control [28]: 3.3%
kinase still bound, per cent of control [29]: 86%
kinase still bound, per cent of control [30]: 6.1%
kinase still bound, per cent of control [31]: 100%
kinase still bound, per cent of control [32]: 16%
kinase still bound, per cent of control [33]: 77%
kinase still bound, per cent of control [34]: 70%
kinase still bound, per cent of control [35]: 48%
kinase still bound, per cent of control [36]: 17%
kinase still bound, per cent of control [37]: 62%
kinase still bound, per cent of control [38]: 100%
kinase still bound, per cent of control [39]: 80%
kinase still bound, per cent of control [40]: 100%
kinase still bound, per cent of control [41]: 79%
kinase still bound, per cent of control [42]: 76%
Structure (SMILES): COc1cc(N2CCC(O)CC2)ccc1Nc1ncc2c(n1)N1CCc3cccc(c31)C(=O)N2C
kinase still bound, per cent of control [2]: 100%

kinase still bound, per cent of control [1]: 100%
kinase still bound, per cent of control [3]: 100%
kinase still bound, per cent of control [4]: 78%
kinase still bound, per cent of control [5]: 61%
kinase still bound, per cent of control [6]: 100%
kinase still bound, per cent of control [7]: 100%
kinase still bound, per cent of control [8]: 64%
kinase still bound, per cent of control [9]: 90%
kinase still bound, per cent of control [10]: 100%
kinase still bound, per cent of control [11]: 100%
kinase still bound, per cent of control [12]: 100%
kinase still bound, per cent of control [13]: 100%
kinase still bound, per cent of control [14]: 100%
kinase still bound, per cent of control [15]: 89%
kinase still bound, per cent of control [16]: 100%
kinase still bound, per cent of control [17]: 86%
kinase still bound, per cent of control [18]: 100%
kinase still bound, per cent of control [19]: 80%
kinase still bound, per cent of control [20]: 100%
kinase still bound, per cent of control [21]: 100%
kinase still bound, per cent of control [22]: 100%
kinase still bound, per cent of control [23]: 100%
kinase still bound, per cent of control [24]: 100%
kinase still bound, per cent of control [25]: 79%
kinase still bound, per cent of control [26]: 84%
kinase still bound, per cent of control [27]: 91%
kinase still bound, per cent of control [28]: 100%
kinase still bound, per cent of control [29]: 100%
kinase still bound, per cent of control [30]: 95%
kinase still bound, per cent of control [31]: 100%
kinase still bound, per cent of control [32]: 92%
kinase still bound, per cent of control [33]: 100%
kinase still bound, per cent of control [34]: 92%
kinase still bound, per cent of control [35]: 85%
kinase still bound, per cent of control [36]: 98%
kinase still bound, per cent of control [37]: 100%
kinase still bound, per cent of control [38]: 100%
kinase still bound, per cent of control [39]: 89%
kinase still bound, per cent of control [40]: 100%
kinase still bound, per cent of control [41]: 83%
kinase still bound, per cent of control [42]: 95%
Structure (SMILES): CN1CCN(c2ccc(C(=O)Nc3ncc4c(n3)N(C)c3ccccc3C(=O)N4C)cc2)CC1
kinase still bound, per cent of control [2]: 100%
